According to PubChem BioAssay AID179 (DTP/NCI, 2004):
Where “and” joins values, the source holds several entries; their conditions need not be identical. Equal entries are not always repeated. Calls of active or inactive are those of the source.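 How the source made its calls: active means compounds giving half or more protection of infected cells from virus-caused growth loss, again on retest; inactive means the rest.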 Where a SMILES comes first, the peptide text is derived from it. [ ]: non-standard residue; d: D form. ξ: configuration not given here. Ac5c = NC1(C(=O)O)CCCC1; ξS = NC(CO)C(=O)O

Tested on: CEM cells HIV-1 protection, formazan growth assay
Experiment: NCI AIDS Antiviral Assay
Conditions: for IC50: measured here: growth of uninfected CEM cells
Procedure, shortened: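 Soluble formazan readout of cell growth; CEM cells ± HIV-1; 5 drug concs. ≥50% protection → retest; ≥50% again = moderately active; reproducible 100% = confirmed active.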

Row | Compound | outcome | EC50 [µM] | IC50
1 | Cc1cc(N(C)C)ccc1N=Nc1ccc2ncccc2c1 | inactive |  | 
2 | CC(C)Cc1nc(-c2cc3ccccc3[nH]2)c(CC(C)C)nc1-c1cc2ccccc2[nH]1 |  | > 4.68 | > 4.68 µM
3 | COc1ccc2c(O)c(Cc3ccc(OC)c(OC)c3)c(=O)oc2c1 | inactive |  | 
4 | COc1cccc(/C=N\NC(=O)C(C)SC(C)C(=O)N/N=C/c2cccc(OC)c2)c1 (stereo unspecified) | inactive |  | 
5 | CCCNC(=O)Sc1ccccc1C(=O)N[C@H](C)C(N)=O |  | > 4.68 | 
6 | COC1C(N)C(OC2C(Oc3cccc4c(O)c5c(=O)oc6ccc(C)c7c(=O)oc(c34)c5c67)OC(C)C(O)C2(C)O)OC(C)C1O (stereo unspecified) |  | > 0.2 | 0.0363 µM
7 | CO/C=C/C=C(\C#N)C(=O)OC |  | 174 | > 200 µM
8 | O=S(OO)c1cc(Cl)c(O)c(Cl)c1 (stereo unspecified) |  | > 1020 | > 1020 µM
9 | C1CCC(OCC2(COC3CCCCO3)CCCCO2)OC1 (stereo unspecified) |  | > 200 | > 200 µM
10 | CCOc1ccc(N2CC(=O)N3CCCC(C)N3C(=O)C2)cc1 (stereo unspecified) |  | > 200 | 170 µM
11 | C/C(Cc1[nH]nc2c1c(=O)oc1ccc3ccccc3c12)=N\N |  | > 200 | 12.6 µM
12 | COc1ccc(/C=N/NS(=O)(=O)c2ccccc2)cc1 | inactive |  | 
13 | CC(C)(O)c1cc2c(cc1C(C)(C)O)-c1ccccc1-2 |  | > 200 | > 200 µM
14 | O=c1[nH]ncc(N/N=C(/C=C/c2ccc(C/C(=N/Nc3cn[nH]c(=O)c3Cl)c3ccccc3)cc2)c2ccccc2)c1Cl | inactive |  | 
15 | NC(=O)C(NN=C(c1ccccc1)c1ccccc1)c1ccccc1 (stereo unspecified) | inactive |  | 
16 | CC1(C)CCc2c(cc3c(c2O)CCC(C)(C)O3)O1 |  | > 200 | > 200 µM
17 | N#Cc1n[nH]n(-c2ccc(Br)cc2)c1=O |  | > 200 | > 200 µM
18 | COc1cc2oc3c(C)c(=O)cc4oc(-c5ccccc5)cc(c2c2c1CCC(c1ccccc1)O2)c43 (stereo unspecified) |  | > 4.07 | > 4.07 µM
19 | N/N=C(\c1nc2ccc(Cl)cc2[nH]c1=O)C(O)c1ccc(Cl)c(Cl)c1 (stereo unspecified) |  | > 245 | 20.4 µM
20 | CC(=O)/C(=C\N1CCNC1=S)C(=O)Nc1ccccc1 |  | > 200 | > 200 µM
21 | COC(=O)/C(=N\O)C(C(=O)C=C(C)C)C(=O)C(=O)Nc1ccccc1C (stereo unspecified) |  | > 692 | > 692 µM
22 | N#CC(C#N)=Cc1ccc(Oc2ccccc2)cc1 |  | > 21.4 | 16.6 µM

Row | Compound | outcome | EC50 [µM] | IC50
23 | Cc1ccc2nc(NC(=S)NCCCCNC(=S)Nc3ccc4cc(C)ccc4n3)ccc2c1 |  | > 10.7 | > 10.7 µM
24 | CC(=O)C1=C(C)N2C(=NC3=C(CCc4ccccc43)C2c2ccc(F)cc2)S1 (stereo unspecified) |  | > 200 | 178 µM
25 | Cc1ccccc1/C=C/c1csnn1 |  | > 129 | > 129 µM
26 | Clc1ccc(/C=N/N=C(N/N=C/c2ccc(Cl)cc2Cl)N/N=C/c2ccc(Cl)cc2Cl)c(Cl)c1 |  | > 100 | > 100 µM
27 | CCOC(=N)CC(=O)Nc1ccccc1 |  | > 40.7 | > 40.7 µM
28 | COC1=CC(=O)c2nccc(C)c2C1=O | inactive |  | 
29 | CCOC(=O)C(CO)NC(=O)C1(NC(C)=O)CCCC1 (stereo unspecified) (Ac-[Ac5c]-[ξS]-OEt) |  | > 200 | > 200 µM
30 | Cc1cc(C)nc(NS(=O)(=O)c2ccc(Nc3c4ccccc4nc4c(C(=O)Nc5ccc(S(=O)(=O)Nc6cc(C)on6)cc5)cccc34)cc2)n1 |  | > 35.5 | > 35.5 µM
31 | CC(=O)NC(ON1C(=O)COc2ccccc21)C(Cl)(Cl)Cl (stereo unspecified) |  | > 100 | > 100 µM
32 | COc1ccc2[nH]cc([C@@H]3C4CCC(C4)[C@H]3NCc3cccc(CN[C@H]4C5CCC(C5)[C@@H]4c4c[nH]c5ccc(OC)cc45)c3)c2c1 |  | > 2 | 0.324 µM and 0.617 µM
33 | O=C(Nc1ccc(C2=NCCN2)cc1)c1cc(C(=O)Nc2ccc(C3=NCCN3)cc2)ncn1 |  | 12.3 | 61.7 µM
34 | O=C1C=C/C(=N\N=C(c2ccccc2)c2ccccc2)O1 |  | > 200 | 145 µM
35 | CC12CCCCC1CC(=O)/C(=C\O)C2 (stereo unspecified) |  | > 200 | 77.6 µM
36 | COc1cccc(N(CN2C(=O)CCC2C(=O)O)C(C)=O)c1 (stereo unspecified) | inactive |  | 
37 | O=C1N(Cl)C2C(N1Cl)N(Cl)C(=O)N2Cl (stereo unspecified) |  | > 200 | > 200 µM
38 | ClC1(Cl)C2CCOC21n1cnc2ccccc21 (stereo unspecified) |  | > 200 | 102 µM
39 | C=CCOP1(OCC=C)=NP(OCC=C)(OCC=C)=NP(OCC=C)(OCC=C)=N1 |  | > 200 | 8.51 µM
40 | C/C(=N\NC(=O)C[N+](C)(C)C)c1sc(-c2cccnc2)nc1C |  | > 135 | 72.4 µM
41 | C=CCC12CCC(=O)[C@@]1(C)CC=C(O)C2=O (stereo partly specified) | inactive |  | 
42 | OCC12C3C4C5C3C1C5C42 (stereo unspecified) |  | > 200 | > 200 µM
43 | O=C1CC[C@@H](S(=O)(=O)c2ccccc2)[C@H](/C=C/c2ccccc2)O1 | inactive |  | 
44 | CC(=O)N1c2ccccc2Sc2c1ccc1ccccc21 |  | > 200 | 45.7 µM

Row | Compound | outcome | EC50 [µM] | IC50
45 | Clc1cc(OCC23CC4CC(CC(C4)C2)C3)nc(OCC23CC4CC(CC(C4)C2)C3)n1 |  | > 100 | > 100 µM
46 | C=CCCCCOC1C=CC(OC(C)=O)C(COC(C)=O)O1 (stereo unspecified) |  | > 200 | > 200 µM
47 | O=C1Nc2cnc(Cl)nc2Nc2cc(Cl)ccc21 |  | > 200 | > 200 µM
48 | O=C(CCCC[n+]1ccccc1)Sc1ccccc1C(=O)Nc1ccc(S(=O)(=O)c2ccc(NS(=O)(=O)Cc3ccccc3[N+](=O)[O-])cc2)cc1 |  | 9.55 | > 200 µM
49 | COC(=O)C(=O)C(C(=O)C(=O)Nc1ccccc1C(=O)OC)c1nc2ccc(C(=O)c3ccccc3)cc2[nH]c1=O (stereo unspecified) |  | > 89.1 | 52.5 µM
50 | O=C(O)C(=Cc1ccc(-c2ccc([N+](=O)[O-])cc2)o1)C(=O)O |  | > 200 | > 200 µM
51 | CC(=O)C1CCC2C3CC4OCC5(CCC(O)CC45Br)C3CCC12C (stereo unspecified) |  | > 200 | 40.7 µM
52 | C/C(=N\OCC(O)CNC(C)C)c1ccc2c(c1)NC(=O)CS2 (stereo unspecified) | inactive |  | 
53 | O=C(NCc1ccccc1)c1c(O)c2ccccc2[nH]c1=O |  | > 200 | > 200 µM
54 | NC(=S)NNC(=O)/C(=C/c1ccc(/C=C(\NC(=O)c2ccccc2)C(=O)NNC(N)=S)cc1)NC(=O)c1ccccc1 |  | > 8.71 | > 8.71 µM
55 | Clc1ccc2nc3c(c(-c4ccccc4)nn3-c3ccccc3)c(-c3ccccc3)c2c1 |  | > 100 | > 100 µM
56 | COc1ccc(C(=O)CC(=O)c2ccc3ccccc3n2)c(O)c1OC |  | > 200 | 12.9 µM
57 | Cc1cc(S(=O)(=O)n2ccnc2Oc2ccc(N)cc2)c(SSc2cc(Cl)c(C)cc2S(=O)(=O)n2ccnc2Oc2ccc(N)cc2)cc1Cl |  | > 100 | 21.9 µM
58 | N=C(OC1CCCCC1)N1CCCC1 |  | > 200 | > 200 µM
59 | COc1ccc(C(=O)C(C(=O)CC(=O)Nc2cccc(C(F)(F)F)c2)c2ccc(OC)cc2)cc1 (stereo unspecified) |  | > 14.8 | > 14.8 µM
60 | CCNC(=S)NNC(=O)C12CC3CC(CC(C3)C1)C2 |  | > 200 | > 200 µM
61 | CC(=O)NC(C)c1ccc(N=NN2CCCC2)cc1 (stereo unspecified) |  | > 200 | 79.4 µM
62 | CCCCS(=O)CCC(N)P(=O)(O)O (stereo unspecified) |  | > 200 | > 200 µM
63 | CC(=O)NC(CCCN(Cc1ccccc1)C(=O)NCCCl)C(=O)NCc1ccccc1 (stereo unspecified) |  | > 389 | 347 µM
64 | C(#CP(c1ccccc1)c1ccccc1)P(C#CP(c1ccccc1)c1ccccc1)c1ccccc1 | inactive |  | 
65 | O=NN1CCN=C1c1ccc([N+](=O)[O-])cc1 |  | > 112 | 33.9 µM
66 | COC1=CC(=O)[C@H]2[C@H](C)C(c3ccccc3)[C@@]2(C)C1=O (stereo partly specified) |  | > 933 | 603 µM

Row | Compound | outcome | EC50 [µM] | IC50
67 | COC(=O)C1C2CC3C(OC(=O)C31)C2OC(=O)[C@](OC)(c1ccccc1)C(F)(F)F (stereo partly specified) |  | > 83.2 | > 83.2 µM
68 | CC1CCP(=O)(c2ccccc2)C1 (stereo unspecified) |  | > 1290 | > 1290 µM
69 | CC(C)=CCOc1cc(O)c2c(O)c3c(cc2c1)CC(C)(C)CC3=O |  | > 100 | 7.08 µM
70 | N#C/C(=C\c1cc(F)cc(F)c1)c1ccccn1 |  | > 200 | 26.3 µM
71 | O=C1/C(=C/c2cccc([N+](=O)[O-])c2)CCCc2ccccc21 |  | > 200 | 6.31 µM
72 | COC(=O)/C=C1\CC(C)C2=C(N1)SCC2=O (stereo unspecified) |  | > 355 | 138 µM
73 | CCc1cccc(C)c1NC(=O)CC1C(=O)Nc2ccccc2S1=O (stereo unspecified) | inactive |  | 
74 | COC(=O)c1cc2c(s1)C(=O)c1ccccc1-2 |  | > 2.24 | > 2.24 µM
75 | CC1(O)CSc2c(C=O)c3ccccc3n21 (stereo unspecified) |  | > 1070 | 67.6 µM
76 | CCCCC1=C(C(=O)N2CCOCC2)C2(OCCO2)C1=O |  | > 200 | 53.7 µM
77 | Oc1c(CN2CCCC2)ccc2ccccc12 |  | > 200 | > 200 µM
78 | COc1cc(Br)c(CC2=NCCc3cc(OC)c(OC)cc32)cc1OC | inactive |  | 
79 | Cc1ccc(S(=O)(=O)n2nc(Oc3ccc(Cl)c(Cl)c3)nc2N)cc1 |  | > 3.63 | > 3.63 µM
80 | COC(=O)c1cc(C(=CCCO)c2cc(Br)c(OC)c(C(=O)OC)c2)cc(Br)c1OC |  | > 200 | 12.6 µM
81 | COC(=O)Cc1c([C@H]2[C@H](CC(=O)OC)c3ccccc3N2C(=O)C(F)(F)F)[nH]c2ccccc12 |  | > 200 | 27.5 µM
82 | CC1(C)CC(=O)C2=C(C1)NC(=S)C(C#N)C2c1ccccc1 (stereo unspecified) |  | > 85.1 | 32.4 µM
83 | O=S(=O)(O)C(I)S(=O)(=O)O |  | > 200 | > 200 µM
84 | COC(=O)C1OC(OC2=C(c3ccc(OC)cc3)C(=O)C(OC3OC(C(=O)OC)C(OC(C)=O)C(OC(C)=O)C3OC(C)=O)=C(c3ccc(OC)cc3)C2=O)C(OC(C)=O)C(OC(C)=O)C1OC(C)=O (stereo unspecified) |  | > 28.8 | 4.57 µM
85 | COc1ccc2c(c1)[C@@H]1c3cc(OC)c(OC)cc3CCN1CCC2 |  | > 200 | > 200 µM
86 | CCC(C)c1c(NC(=O)c2ccccc2)o[nH]c1=O (stereo unspecified) |  | > 200 | > 200 µM
87 | C1CSCCSCCSCCSCCSCCS1 |  | > 14.5 | > 14.5 µM
88 | Cc1ccc(-c2c(C#N)c(-c3ccccc3)n(NS(=O)(=O)c3ccc(C)cc3)c(=O)c2C#N)cc1 |  | > 200 | 67.6 µM
